# In US9422296B2, “Fast-dissociating dopamine 2 receptor antagonists” (Janssen Pharmaceutica NV, priority 2007, dated 2016):
# Like-named read-outs stand apart in the source and are kept apart here.
# Legend:
# human D2L receptor = molecular target: T1, human D2L receptor (Homo sapiens, UniProt P14416); test: Fast dissociation: indirect assay of rate of dissociation from D2 receptor ([3H]spiperone binding after pre-incubation with compound); settings: [3H]spiperone binding as % of total binding capacity after 5 min on filter; compound pre-incubated at 4 times its IC50; >50% = faster than clozapine
# T1 construct: expressed in transfected cells
# T1 sequence (P14416 whole entry): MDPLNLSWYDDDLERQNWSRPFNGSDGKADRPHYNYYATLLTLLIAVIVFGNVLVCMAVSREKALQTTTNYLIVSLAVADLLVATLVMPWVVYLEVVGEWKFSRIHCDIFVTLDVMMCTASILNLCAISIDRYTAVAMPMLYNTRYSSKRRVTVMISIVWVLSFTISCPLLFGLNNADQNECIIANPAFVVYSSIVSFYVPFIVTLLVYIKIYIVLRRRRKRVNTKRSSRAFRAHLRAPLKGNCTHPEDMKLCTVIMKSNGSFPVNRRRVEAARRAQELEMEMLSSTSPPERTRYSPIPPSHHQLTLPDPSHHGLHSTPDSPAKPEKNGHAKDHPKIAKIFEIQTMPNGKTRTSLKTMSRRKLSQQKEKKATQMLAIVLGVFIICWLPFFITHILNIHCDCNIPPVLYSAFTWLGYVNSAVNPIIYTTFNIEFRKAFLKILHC
# Description: Compounds were first screened for their D2 affinity in a binding assay using [^3H]spiperone and human D2L receptor cell membranes.
# Compounds at a concentration of 4 times their IC50 were first incubated for one hour with human D2L receptor cell membranes in a volume of 2 ml at 25° C., then filtered over glass-fibre filter under suction using a 40 well multividor Immediately after, the vacuum was released. 0.4 ml of pre-warmed buffer (25° C.) containing 1 nM [^3H]spiperone was added on the filter for 5 minutes. The incubation was stopped by initiating the vacuum and immediate rinsing with 2×5 ml of ice-cold buffer. The filter-bound radioactivity was measured in a liquid scintillation spectrometer. The principle of the assay is based on the assumption that the faster a compound dissociates from the D2 receptor, the faster [^3H]spiperone binds to the D2 receptor.
# [1] = molecular target: T2, human Dopamine D2L receptor (Homo sapiens, UniProt P14416); test: In vitro binding affinity for human D2L receptor ([3H]spiperone); settings: membranes of human D2L receptor-transfected CHO cells, read-out: D2L binding pIC50 (converted)
# T2 construct: expressed in transfected cells; host or cells: CHO cells (membranes)
# T2 sequence (P14416 whole entry): as above
# From the text: In order to find antipsychotic compounds active against positive and negative symptoms and cognitive impairment, and having an improved safety profile (low EPS incidence and no metabolic disorders), we have screened for compounds selectively interacting with the dopamine D2 receptor and dissociating fast from this receptor, and further having affinity for the dopamine D3 receptor as well as the serotonin 5-HT-6 receptor. Compounds were first screened for their D2 affinity in a binding assay using [^3H]spiperone and human D2L receptor cell membranes.
# Pharmacology In Vitro Binding Affinity for Human D2L Receptor
# Frozen membranes of human Dopamine D2L receptor-transfected CHO cells were thawed, briefly homogenised using an Ultra-Turrax T25 homogeniser and diluted in Tris-HCl assay buffer containing NaCl, CaCl2, MgCl2, KCl (50, 120, 2, 1, and 5 mM respectively, adjusted to pH 7.7 with HCl) to an appropriate protein concentration optimised for specific and non-specific binding. Radioligand [^3H]Spiperone (NEN, specific activity ˜70 Ci/mmol) was diluted in assay buffer at a concentration of 2 nmol/L. Prepared radioligand (50 μl), along with 50 μl of either the 10% DMSO control, Butaclamol (10^−6 mol/1 final concentration), or compound of interest, was then incubated (30 min, 37° C.) with 400 μl of the prepared membrane solution. Membrane-bound activity was filtered through a Packard Filtermate harvester onto GF/B Unifilterplates and washed with ice-cold Tris-HCl buffer (50 mM; pH 7.7; 6×0.5 ml). Filters were allowed to dry before adding scintillation fluid and counting in a Topcount scintillation counter. Percentage specific bound and competition binding curves were calculated using S-Plus software (Insightful).
# [2] = molecular target: T3, human Serotonin 5HT6 receptor (Homo sapiens, UniProt P50406); test: In vitro binding affinity for human 5HT6 receptor ([3H]lysergic acid diethylamide); settings: [3H]LSD, membranes of human 5HT6 receptor-transfected HEK cells; for IC50: read-out: 5-HT6 binding pIC50 (converted)
# T3 construct: expressed in transfected cells; host or cells: HEK cells (membranes)
# T3 sequence (P50406 whole entry): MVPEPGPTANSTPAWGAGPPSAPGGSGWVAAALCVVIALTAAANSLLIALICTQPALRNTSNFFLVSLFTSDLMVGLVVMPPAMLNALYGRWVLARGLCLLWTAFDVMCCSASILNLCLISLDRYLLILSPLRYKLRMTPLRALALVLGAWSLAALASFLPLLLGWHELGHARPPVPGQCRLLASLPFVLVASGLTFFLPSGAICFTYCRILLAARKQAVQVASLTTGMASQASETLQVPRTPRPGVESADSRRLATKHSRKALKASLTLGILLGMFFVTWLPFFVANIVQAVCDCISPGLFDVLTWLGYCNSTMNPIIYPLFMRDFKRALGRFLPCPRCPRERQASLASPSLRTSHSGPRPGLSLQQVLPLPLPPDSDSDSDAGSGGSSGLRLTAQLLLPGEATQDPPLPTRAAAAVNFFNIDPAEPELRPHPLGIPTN
# Description: In Vitro Binding Affinity for Human 5HT6 Receptor
# Frozen membranes of human Serotonin 5HT6 receptor-transfected HEK cells were thawed, briefly homogenized using an Ultra-Turrax T25 homogeniser and diluted in 50 mM Tris-HCl assay buffer containing 10 mM MgCl2, 1 mM EDTA and 10 μM Pargyline (adjusted to pH 7.4 with HCl) to an appropriate protein concentration optimized for specific and non-specific binding. Radioligand [^3H]Lysergic acid diethylamide (Perkin Elmer, specific activity ˜80 Ci/mmol) was diluted in assay buffer at a concentration of 20 nM. Radioligand (20 μl), along with 40 μl of either the 10% DMSO control, Methiothepine (10^−5 M final concentration), or compound of interest, was then incubated with 70 μl of the prepared membrane solution and 70 μl of WGA coated PVT beads (0.25 mg/well final concentration). After shaking for 24 hours at RT plates were counted in a Topcount™ scintillation counter. Percentage specific binding and competition binding curves were calculated using S-Plus software (Insightful).
# [3] = molecular target: T4, human Dopamine D3 receptor (Homo sapiens, UniProt P35462); test: In vitro binding affinity for human D3 receptor ([125I]iodosulpride)
# T4 construct: expressed in transfected cells; host or cells: CHO cells (membranes)
# T4 sequence (P35462 whole entry): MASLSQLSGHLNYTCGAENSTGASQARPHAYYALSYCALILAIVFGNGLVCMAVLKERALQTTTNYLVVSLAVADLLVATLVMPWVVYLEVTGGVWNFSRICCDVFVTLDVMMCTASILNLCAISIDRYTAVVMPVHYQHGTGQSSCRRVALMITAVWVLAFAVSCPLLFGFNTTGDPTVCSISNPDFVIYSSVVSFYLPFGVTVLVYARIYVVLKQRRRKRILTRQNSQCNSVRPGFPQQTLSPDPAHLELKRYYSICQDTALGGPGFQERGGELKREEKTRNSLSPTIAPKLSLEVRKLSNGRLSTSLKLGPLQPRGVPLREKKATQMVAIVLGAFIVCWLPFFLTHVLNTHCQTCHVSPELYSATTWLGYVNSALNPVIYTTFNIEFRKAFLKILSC
# Description: In Vitro Binding Affinity for Human D3 Receptor
# Frozen membranes of human Dopamine D3 receptor-transfected CHO cells were thawed, briefly homogenized using an Ultra-Turrax T25 homogeniser and diluted in 50 mM Tris-HCl assay buffer containing 120 mM NaCl, 2 mM CaCl2, 1 mM MgCl2, 5 mM KCl and 0.1% BSA (adjusted to pH 7.4 with HCl) to an appropriate protein concentration optimized for specific and non-specific binding. Radioligand [^125I]Iodosulpride (Amersham, specific activity ˜2000 Ci/mmol) was diluted in assay buffer at a concentration of 2 nM. Prepared radioligand (20 μl), along with 40 μl of either the 10% DMSO control, Risperidone (10^−6M final concentration), or compound of interest, was then incubated with 70 μl of the prepared membrane solution and 70 μl of WGA coated PVT beads (0.25 mg/well final concentration). After shaking for 24 hours at RT plates were counted in a Topcount™ scintillation counter. Percentage specific binding and competition binding curves were calculated using S-Plus software (Insightful).
# [4] = system: subchronic PCP-induced attentional set shifting; test: Reversal of subchronic PCP-induced attentional set shifting in rats; format: in vivo
# From the text: Compound E1 was further found to be active in the ‘Reversal of subchronic PCP-induced attentional set shifting in rats’ test (J. S. Rodefer et al., Neurospychopharmacology (2007), 1-10).
# [5] = [125I]iodosulpride, membranes of human D3 receptor-transfected CHO cells, read-out: D3 binding pIC50 (converted)
Compound,IC50 [1],IC50 [2],melting point,"IC50 [3, 5]",5-HT6 binding pIC50 [2],D2 dissociation (human D2L receptor),IC50 [3],activity in reversal of subchronic PCP-induced attentional set shifting [4]
"Fc1ccc(-c2cc(N3CCNCC3)nnc2C(F)(F)F)cc1 [Example E6, 4-(4-Fluorophenyl)-6-piperazin-1-yl-3-trifluoromethyl-pyridazine]",372 nM,214 nM,137.4 °C,,,55%,36.3 nM,
"Fc1ccc(-c2ccc(-c3cc(N4CCNCC4)nnc3C(F)(F)F)cc2)cc1 [Example E9, 4-(4′-Fluorobiphenyl-4-yl)-6-piperazin-1-yl-3-trifluoromethyl-pyridazine]",794 nM,1820 nM,161.9 °C,47.9 nM,,48%,,
"N#Cc1nnc(N2CCNCC2)cc1-c1ccccc1 [Example E10, 4-Phenyl-6-piperazin-1-yl-pyridazine-3-carbonitrile]",5620 nM,4570 nM,271.6 °C,> 10000 nM,,86%,,
"Cc1ccccc1-c1cc(N2CCNCC2)nnc1C(F)(F)F [Example E8, 6-Piperazin-1-yl-4-o-tolyl-3-trifluoromethyl-pyridazine]",1000 nM,263 nM,,> 10000 nM,,78.5%,,
"FC(F)(F)c1nnc(N2CCNCC2)cc1-c1ccsc1 [Example E7, 6-Piperazin-1-yl-4-thiophen-3-yl-3-trifluoromethyl-pyridazine]",871 nM,1550 nM,244.3 °C,> 10000 nM,,81%,,
"FC(F)(F)c1nnc(N2CCNCC2)cc1-c1ccccc1 [Example E1, 4-Phenyl-6-piperazin-1-yl-3-trifluoromethyl-pyridazine]",1100 nM,589 nM,130.7 °C,66.1 nM,,75%,,active

# Now from value to molecule, other results behind:
IC50 [1],IC50 [2],melting point,"IC50 [3, 5]",5-HT6 binding pIC50 [2],Compound,D2 dissociation (human D2L receptor),IC50 [3],activity in reversal of subchronic PCP-induced attentional set shifting [4]
1260 nM,1020 nM,,> 10000 nM,,"FC(F)(F)c1nnc(N2CCN3CCCC3C2)cc1-c1ccccc1 (racemic) [Example E5, 2-(5-Phenyl-6-trifluoromethyl-pyridazin-3-yl)-octahydro-pyrrolo[1,2-a]pyrazine]",84%,,
204 nM,3160 nM,,25.1 nM,,"CCN1CCN(c2cc(-c3ccccc3)c(C(F)(F)F)nn2)CC1 [Example E2, 6-(4-Ethylpiperazin-1-yl)-4-phenyl-3-trifluoromethyl-pyridazine]",80.5%,,
617 nM,,138.8 °C,> 10000 nM,>5,"Fc1cc(F)cc(CN2CCN(c3cc(-c4ccccc4)c(C(F)(F)F)nn3)CC2)c1 [Example E3, 6-[4-(3,5-Difluorobenzyl)piperazin-1-yl]-4-phenyl-3-trifluoromethyl-pyridazine]",,,
1860 nM,> 10000 nM,152 °C,275 nM,,FC(F)(F)c1nnc(N2CCN(C3CC3)CC2)cc1-c1ccccc1 [Example E23],,,
